This note sets out measurements from patent US9662323B2, “Compounds having muscarinic receptor antagonist and beta2 adrenergic receptor agonist activity” (CHIESI FARMACEUTICI S.p.A., priority 2015, dated 2017).

The structures appear in SMILES notation. pKi: −log10 of the molar value. A value given as a limit tells only on which side of the number the result lay.

Assay [1] addresses T1, Human β2 adrenoceptor (Homo sapiens, UniProt P07550).
T1 construct: purchased Perkin Elmer
Kind of assay: β2 Adrenoceptor Radioligand Binding Assay. The settings on record: human β2 adrenoceptor membranes, 125-I Cyanopindolol; read-out: B2 binding affinity (Ki class). The gist of the method:
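Membranes were incubated 1 h at room temperature in 25 mM HEPES, 0.5% BSA, 1 mM EDTA, 0.02% ascorbic acid, pH 7.4, with 0.5% DMSO final. Bound radioligand was collected by GF/C filtration and counted by scintillation. IC50 values from competition curves were converted to Ki by Cheng–Prusoff.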

The target in assay [2] is T2, Human M3 receptor (Homo sapiens, UniProt P20309).
T2 construct: purchased Perkin Elmer
T2 sequence (P20309 whole entry): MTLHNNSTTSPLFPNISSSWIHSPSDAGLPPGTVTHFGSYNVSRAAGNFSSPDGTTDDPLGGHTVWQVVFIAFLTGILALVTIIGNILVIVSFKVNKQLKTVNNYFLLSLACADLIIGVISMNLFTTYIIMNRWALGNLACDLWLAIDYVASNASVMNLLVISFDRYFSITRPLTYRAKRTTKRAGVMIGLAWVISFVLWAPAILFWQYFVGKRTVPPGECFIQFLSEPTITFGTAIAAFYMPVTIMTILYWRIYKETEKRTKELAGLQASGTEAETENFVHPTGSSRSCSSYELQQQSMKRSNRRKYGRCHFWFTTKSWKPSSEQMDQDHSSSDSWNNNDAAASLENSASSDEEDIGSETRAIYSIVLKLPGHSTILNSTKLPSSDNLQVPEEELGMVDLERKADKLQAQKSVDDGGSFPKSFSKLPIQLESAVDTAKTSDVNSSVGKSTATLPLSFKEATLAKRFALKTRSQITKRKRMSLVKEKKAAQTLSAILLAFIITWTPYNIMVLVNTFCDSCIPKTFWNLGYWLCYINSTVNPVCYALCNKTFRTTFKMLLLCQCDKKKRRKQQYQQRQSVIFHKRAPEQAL
Kind of assay: M3 Receptor Radioligand Binding Assay. The settings on record: human M3 receptor membranes, [3H]-N-methyl scopolamine; read-out: M3 binding affinity (Ki class). The gist of the method: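 Radioligand binding with 0.5% (v/v) final DMSO, incubated 2 h at room temperature with shaking. Membranes were collected on GF/C filters pre-treated with 0.5% polyethyleneimine, washed four times with assay buffer, and counted by scintillation.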

T1 sequence (P07550 whole entry): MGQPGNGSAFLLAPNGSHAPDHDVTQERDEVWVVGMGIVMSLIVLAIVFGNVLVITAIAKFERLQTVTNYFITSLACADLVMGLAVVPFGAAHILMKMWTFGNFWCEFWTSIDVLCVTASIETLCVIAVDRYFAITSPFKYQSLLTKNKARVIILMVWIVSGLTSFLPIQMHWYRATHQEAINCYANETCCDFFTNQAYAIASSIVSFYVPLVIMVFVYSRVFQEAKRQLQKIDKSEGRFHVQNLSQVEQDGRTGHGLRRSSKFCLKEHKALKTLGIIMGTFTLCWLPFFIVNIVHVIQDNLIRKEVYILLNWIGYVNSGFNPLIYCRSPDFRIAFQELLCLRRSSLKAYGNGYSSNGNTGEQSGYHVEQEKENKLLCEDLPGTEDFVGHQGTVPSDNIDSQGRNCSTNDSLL

The term pKi denotes the negative decadic logarithm of the Ki, by convention in mol/L. `Cc1ccc(CN(CCCNC[C@H](O)c2ccc(O)c3[nH]c(=O)ccc23)C(=O)Cc2ccc(CC(=O)N3CCC(C(=O)O[C@H]4CN5CCC4CC5)(c4ccccc4)CC3)cc2)cc1` [Compound 33, (R)-Quinuclidin-3-yl 1-(2-(4-(2-((3-(((R)-2-hydroxy-2-(8-hydroxy-2-oxo-1,2-dihydroquinolin-5-yl)ethyl)amino)propyl)(4-methylbenzyl)amino)-2-oxoethyl)phenyl)acetyl)-4-phenylpiperidine-4-carboxylate]: the pKi in assay [1] was 8.00 to 9.00; in assay [2] it was over 9.00.
The matching figures for `Cc1ccccc1CN(CCCNC[C@H](O)c1ccc(O)c2[nH]c(=O)ccc12)C(=O)Cc1ccc(CC(=O)N2CCC(C(=O)O[C@H]3CN4CCC3CC4)(c3ccccc3)CC2)cc1` [Compound 34, (R)-Quinuclidin-3-yl 1-(2-(4-(2-((3-(((R)-2-hydroxy-2-(8-hydroxy-2-oxo-1,2-dihydroquinolin-5-yl)ethyl)amino)propyl)(2-methylbenzyl)amino)-2-oxoethyl)phenyl)acetyl)-4-phenylpiperidine-4-carboxylate]: over 9.00 and over 9.00.
The matching figures for `Cc1cccc(CN(CCCNC[C@H](O)c2ccc(O)c3[nH]c(=O)ccc23)C(=O)Cc2ccc(CC(=O)N3CCC(C(=O)O[C@H]4CN5CCC4CC5)(c4ccccc4)CC3)cc2)c1` [Compound 35, (R)-Quinuclidin-3-yl 1-(2-(4-(2-((3-(((R)-2-hydroxy-2-(8-hydroxy-2-oxo-1,2-dihydroquinolin-5-yl)ethyl)amino)propyl)(3-methylbenzyl)amino)-2-oxoethyl)phenyl)acetyl)-4-phenylpiperidine-4-carboxylate]: over 9.00 and over 9.00.
On the same counts, the results for `O=C(Cc1ccc(CC(=O)N(CCCNC[C@H](O)c2ccc(O)c3[nH]c(=O)ccc23)Cc2ccccc2)cc1)N1CCC(C(=O)O[C@H]2CN3CCC2CC3)(c2ccccc2)CC1` [Compound 36, (R)-Quinuclidin-3-yl 1-(2-(4-(2-(benzyl(3-(((R)-2-hydroxy-2-(8-hydroxy-2-oxo-1,2-dihydroquinolin-5-yl)ethyl)amino)propyl)amino)-2-oxoethyl)phenyl)acetyl)-4-phenylpiperidine-4-carboxylate] are over 9.00 and over 9.00.
Turning to `O=C(Cc1ccc(CC(=O)N(CCCNC[C@H](O)c2ccc(O)c3[nH]c(=O)ccc23)Cc2cccc(C(F)(F)F)c2)cc1)N1CCC(C(=O)O[C@H]2CN3CCC2CC3)(c2ccccc2)CC1` [Compound 37, (R)-Quinuclidin-3-yl 1-(2-(4-(2-((3-(((R)-2-hydroxy-2-(8-hydroxy-2-oxo-1,2-dihydroquinolin-5-yl)ethyl)amino)propyl)(3-(trifluoromethyl)benzyl)amino)-2-oxoethyl)phenyl)acetyl)-4-phenylpiperidine-4-carboxylate], the values for the pKi in assay [1] and in assay [2] were 8.00 to 9.00 and over 9.00, respectively.
The matching figures for `COc1cccc(CN(CCCNC[C@H](O)c2ccc(O)c3[nH]c(=O)ccc23)C(=O)Cc2ccc(CC(=O)N3CCC(C(=O)O[C@H]4CN5CCC4CC5)(c4ccccc4)CC3)cc2)c1` [Compound 38, (R)-Quinuclidin-3-yl 1-(2-(4-(2-((3-(((R)-2-hydroxy-2-(8-hydroxy-2-oxo-1,2-dihydroquinolin-5-yl)ethyl)amino)propyl)(3-methoxybenzyl)amino)-2-oxoethyl)phenyl)acetyl)-4-phenylpiperidine-4-carboxylate]: over 9.00 and over 9.00.
Turning to `O=C(Cc1ccc(CC(=O)N(CCCNC[C@H](O)c2ccc(O)c3[nH]c(=O)ccc23)Cc2cccc(Oc3ccc(Cl)c(Cl)c3)c2)cc1)N1CCC(C(=O)O[C@H]2CN3CCC2CC3)(c2ccccc2)CC1` [Compound 40, (R)-Quinuclidin-3-yl 1-(2-(4-(2-((3-(3,4-dichlorophenoxy)benzyl)(3-(((R)-2-hydroxy-2-(8-hydroxy-2-oxo-1,2-dihydroquinolin-5-yl)ethyl)amino)propyl)amino)-2-oxoethyl)phenyl)acetyl)-4-phenylpiperidine-4-carboxylate], the figures for the pKi in assay [1] and in assay [2] were 8.00 to 9.00 and over 9.00, respectively.
The matching figures for `O=C(Cc1ccc(CC(=O)N(CCCNC[C@H](O)c2ccc(O)c3[nH]c(=O)ccc23)Cc2cccc(OCc3ccccc3)c2)cc1)N1CCC(C(=O)O[C@H]2CN3CCC2CC3)(c2ccccc2)CC1` [Compound 41, (R)-Quinuclidin-3-yl 1-(2-(4-(2-((3-(benzyloxy)benzyl)(3-(((R)-2-hydroxy-2-(8-hydroxy-2-oxo-1,2-dihydroquinolin-5-yl)ethyl)amino)propyl)amino)-2-oxoethyl)phenyl)acetyl)-4-phenylpiperidine-4-carboxylate]: 8.00 to 9.00 and over 9.00.
`O=C(Cc1ccc(CC(=O)N(CCCNC[C@H](O)c2ccc(O)c3[nH]c(=O)ccc23)Cc2cccc(F)c2)cc1)N1CCC(C(=O)O[C@H]2CN3CCC2CC3)(c2ccccc2)CC1` [Compound 42, (R)-Quinuclidin-3-yl 1-(2-(4-(2-((3-fluorobenzyl)(3-(((R)-2-hydroxy-2-(8-hydroxy-2-oxo-1,2-dihydroquinolin-5-yl)ethyl)amino)propyl)amino)-2-oxoethyl)phenyl)acetyl)-4-phenylpiperidine-4-carboxylate]: the pKi in assay [1] and in assay [2] was over 9.00 in each case.
For the compound `O=C(Cc1ccc(CC(=O)N(CCCNC[C@H](O)c2ccc(O)c3[nH]c(=O)ccc23)Cc2ccccc2OCc2ccccc2)cc1)N1CCC(C(=O)O[C@H]2CN3CCC2CC3)(c2ccccc2)CC1` [Compound 43, (R)-Quinuclidin-3-yl 1-(2-(4-(2-((2-(benzyloxy)benzyl)(3-(((R)-2-hydroxy-2-(8-hydroxy-2-oxo-1,2-dihydroquinolin-5-yl)ethyl)amino)propyl)amino)-2-oxoethyl)phenyl)acetyl)-4-phenylpiperidine-4-carboxylate], the pKi in assay [1] is 8.00 to 9.00; in assay [2] it was over 9.00.
On the same counts, the results for `O=C(Cc1ccc(CC(=O)N(CCCNC[C@H](O)c2ccc(O)c3[nH]c(=O)ccc23)Cc2ccccc2N2CCOCC2)cc1)N1CCC(C(=O)O[C@H]2CN3CCC2CC3)(c2ccccc2)CC1` [Compound 44, (R)-Quinuclidin-3-yl 1-(2-(4-(2-((3-(((R)-2-hydroxy-2-(8-hydroxy-2-oxo-1,2-dihydroquinolin-5-yl)ethyl)amino)propyl)(2-morpholinobenzyl)amino)-2-oxoethyl)phenyl)acetyl)-4-phenylpiperidine-4-carboxylate] are 8.00 to 9.00 and over 9.00.
On the same counts, the results for `O=C(Cc1ccc(CC(=O)N(CCCNC[C@H](O)c2ccc(O)c3[nH]c(=O)ccc23)Cc2ccccc2F)cc1)N1CCC(C(=O)O[C@H]2CN3CCC2CC3)(c2ccccc2)CC1` [Compound 45, (R)-Quinuclidin-3-yl 1-(2-(4-(2-((2-fluorobenzyl)(3-(((R)-2-hydroxy-2-(8-hydroxy-2-oxo-1,2-dihydroquinolin-5-yl)ethyl)amino)propyl)amino)-2-oxoethyl)phenyl)acetyl)-4-phenylpiperidine-4-carboxylate] are over 9.00 and over 9.00.
Regarding `O=C(Cc1ccc(CC(=O)N2CCC(C(=O)O[C@H]3CN4CCC3CC4)(c3ccccc3)CC2)cc1)NCCCNC[C@H](O)c1ccc(O)c2[nH]c(=O)ccc12` [Compound 46, (R)-Quinuclidin-3-yl 1-(2-(4-(2-((3-(((R)-2-hydroxy-2-(8-hydroxy-2-oxo-1,2-dihydroquinolin-5-yl)ethyl)amino)propyl)amino)-2-oxoethyl)phenyl)acetyl)-4-phenylpiperidine-4-carboxylate], the pKi in assay [1] and in assay [2] was under 8.00 throughout.
`CN(CCCNC[C@H](O)c1ccc(O)c2[nH]c(=O)ccc12)C(=O)Cc1ccc(CC(=O)N2CCC(C(=O)O[C@H]3CN4CCC3CC4)(c3ccccc3)CC2)cc1` [Compound 47, (R)-Quinuclidin-3-yl 1-(2-(4-(2-((3-(((R)-2-hydroxy-2-(8-hydroxy-2-oxo-1,2-dihydroquinolin-5-yl)ethyl)amino)propyl)(methyl)amino)-2-oxoethyl)phenyl)acetyl)-4-phenylpiperidine-4-carboxylate]: the pKi in assay [1] and in assay [2] was 8.00 to 9.00 each time.
Take `O=C(c1ccc(OCCCCCCNC[C@H](O)c2ccc(O)c3[nH]c(=O)ccc23)cc1)N1CCC(C(=O)O[C@H]2CN3CCC2CC3)(c2ccccc2)CC1` [Compound 49, (R)-Quinuclidin-3-yl 1-(4-((6-(((R)-2-hydroxy-2-(8-hydroxy-2-oxo-1,2-dihydroquinolin-5-yl)ethyl)amino)hexyl)oxy)benzoyl)-4-phenylpiperidine-4-carboxylate]: the pKi in assay [1] and in assay [2] was over 9.00 in each case.
As for `O=C(c1ccc(OCCCCCCNC[C@H](O)c2ccc(O)c3[nH]c(=O)ccc23)cc1)N1CCC(C(=O)O[C@H]2CN3CCC2CC3)(c2ccc(Br)cc2)CC1` [Compound 50, (R)-Quinuclidin-3-yl 4-(4-bromophenyl)-1-(4-((6-(((R)-2-hydroxy-2-(8-hydroxy-2-oxo-1,2-dihydroquinolin-5-yl)ethyl)amino)hexyl)oxy)benzoyl)piperidine-4-carboxylate], the pKi in assay [1] is over 9.00; in assay [2], under 8.00.
On the same counts, the results for `O=C(c1ccc(OCCCCCCNC[C@H](O)c2ccc(O)c3[nH]c(=O)ccc23)cc1)N1CCC(C(=O)O[C@H]2CN3CCC2CC3)(c2ccc(Cl)cc2)CC1` [Compound 51, (R)-Quinuclidin-3-yl 4-(4-chlorophenyl)-1-(4-((6-(((R)-2-hydroxy-2-(8-hydroxy-2-oxo-1,2-dihydroquinolin-5-yl)ethyl)amino)hexyl)oxy)benzoyl)piperidine-4-carboxylate] are over 9.00 and 8.00 to 9.00.
